In paper PMC10222686, “Synthesis and Molecular Docking Studies of Alkoxy- and Imidazole-Substituted Xanthones as α-Amylase and α-Glucosidase Inhibitors” (Molecules, 2023):

Assays:
α-Glucosidase [1] = settings: Figure 1; reference not given; cited from earlier work
α-amylase [2] = molecular target: T1, α-amylase (Sus scrofa, UniProt P00690); experiment: α-Amylase inhibition assay (starch/DNS); format: biochemical, porcine; settings: mean ± SD, n = 4; for inhibition at 100 µM: NI = no inhibition; for IC50: compounds precipitate at 200 µM;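 for all read-outs here: reducing sugar measured by DNS colour at 540 nm, inhibition relative to enzyme reaction lacking test compound, blank without enzyme subtracted for background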
T1 construct: purchased Sigma-Aldrich; host or cells: porcine pancreas
T1 sequence (P00690 16-511): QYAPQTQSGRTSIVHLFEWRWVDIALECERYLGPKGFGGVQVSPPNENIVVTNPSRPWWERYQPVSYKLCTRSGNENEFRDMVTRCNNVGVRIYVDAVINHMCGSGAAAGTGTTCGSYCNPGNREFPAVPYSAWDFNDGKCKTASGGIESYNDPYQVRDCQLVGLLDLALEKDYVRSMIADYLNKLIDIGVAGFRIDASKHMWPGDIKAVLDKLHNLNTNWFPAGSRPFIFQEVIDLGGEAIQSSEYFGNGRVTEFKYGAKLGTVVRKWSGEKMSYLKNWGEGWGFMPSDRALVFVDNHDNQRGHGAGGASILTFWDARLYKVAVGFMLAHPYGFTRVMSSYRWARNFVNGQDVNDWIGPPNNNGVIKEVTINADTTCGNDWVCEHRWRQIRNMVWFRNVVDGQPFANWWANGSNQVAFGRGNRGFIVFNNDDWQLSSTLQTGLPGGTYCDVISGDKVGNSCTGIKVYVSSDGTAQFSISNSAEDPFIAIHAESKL
Method: α-Amylase inhibitory activity was quantified according to the method developed by Chokki et al., with some modifications [65]. […] Finally, 100 µL of 3,5-dinitrosalicylic acid (DNS) was added and heated at 100 °C for 20 min, and absorbance was then read at 540 nm in a microplate reader (Epoch, BioTek®). The reaction system without any test compound was used as the control, and the system without α-amylase served as a blank for correcting background absorbance. The percentage of α-amylase inhibition was calculated for each sample with Equation (2):(2) % inhibition=Control absorbance−sample absorbance/Control absorbance×100
(§2) All measurements were performed in quadruplicate and the values are expressed as the mean ± standard deviation.

[3] = DPPH radical scavenging assay; settings: mean ± SD, n = 4
Method: The scavenging of free radicals by the synthesized compounds was assessed based on the previously reported DPPH radical assay, with slight modifications. The reaction mixture consisted of 50 µL of compound in DMSO at various concentrations (from 2.5 mM to 0.2 mM) and 150 µL of DPPH solution at 133.33 µM in absolute ethanol. The reaction components were added at a ratio of 1:3 (v/v). The mixture was incubated at 37 °C for 30 min before absorbance was read at 517 nm using a microplate reader (Epoch, BioTek®). Butylhydroxytoulene (BHT) served as the positive control. Scavenging capacity (%) is expressed as the percentage decrease in DPPH. SC% = [(Acontrol − Atest)/Acontrol] × 100 where Acontrol is absorbance of the DPPH solution (control) and Atest is the absorbance of the solution of DPPH and one of the compounds.

α-amylase [4] = molecular target: T1, α-amylase; experiment: Enzymatic kinetic study on α-amylase (Lineweaver–Burk); format: biochemical, porcine; settings: for Type of inhibition of α-amylase: Lineweaver–Burk plots; for Ki: starch 0.1–1.0%, nonlinear regression
Method: These KI values indicate that 6c has greater affinity for the enzyme.
(§1) To explore the type of enzyme inhibition, kinetic studies were carried out with α-glucosidase and α-amylase using a methodology such as that described in the inhibitory activity assays. The alkoxy-substituted xanthones were evaluated at four different concentrations according to their IC50. Various concentrations of substrates were used for each of the enzymes in the range of 0.5–5.0 mM for p-NPG in α-glucosidase and 0.1–1.0% for α-amylase. The type of inhibition for each test compound was determined by utilizing double reciprocal plots. Inhibition constants (KI) were calculated from substrate versus reaction rate curves using nonlinear regression of the enzyme inhibition kinetic function.

α-glucosidase [5] = experiment: Enzymatic kinetic study on α-glucosidase (Lineweaver–Burk); format: biochemical, Saccharomyces cerevisiae; settings: for Type of inhibition of α-glucosidase: Lineweaver–Burk plots; for Ki: p-NPG 0.5–5.0 mM, nonlinear regression
Method: The X-axis values represent the reciprocal for the α-glucosidase substrate, p-nitrophenyl-α-D-glucopyranoside (p-NPG), while for the α-amylase substrate they represent starch, thus being 1/(starch). The Y-axis values are the reciprocal of the reaction velocity (Vo), thus being 1/Vo.
as §1

α-glucosidase [6] = experiment: α-Glucosidase inhibition assay (p-NPG substrate); format: biochemical, Saccharomyces cerevisiae; settings: mean ± SD, n = 4
Method: The inhibitory activity of the compounds on α-glucosidase inhibition was quantified according to the method described by Salehi et al., with slight modifications [64]. A reaction was prepared by mixing 20 µL α-glucosidase solution (0.5 unit/mL), 120 µL 0.1 M phosphate buffer (pH 6.9), and 10 µL of the samples at concentrations from 400 µM to 4.0 µM. The solution was incubated in a 96-well microplate at 37 °C for 15 min. The enzymatic reaction was initiated by adding 20 µL of 5 mM p-NPG solution to 0.1 M phosphate buffer (pH 6.9), followed by incubation at 37 °C for 15 min. The reaction was stopped by adding 80 µL of 0.2 M sodium carbonate solution, and absorbance was read at 405 nm in a microplate reader (Epoch®, BioTek Instrument, Winooski, EUA). The reaction system without any test compounds was used as control, whereas the system without α-glucosidase served as blank for correcting background absorbance. The rate of α-glucosidase inhibition exerted by each sample was calculated with Equation (1):(1) % inhibition=Control absorbance−sample absorbance/Control absorbance×100
as §2

Row | melting point | SMILES | IC50 (α-Glucosidase [1]) | inhibition at 100 µM (α-amylase [2]) | IC50 (α-amylase [2]) | % DPPH Scavenging Activity (2.5 mM) [3] | Type of inhibition of α-amylase (α-amylase [4]) | Ki (α-amylase [4]) | Type of inhibition of α-glucosidase (α-glucosidase [5]) | Ki (α-glucosidase [5]) | α-Glucosidase Inhibition (%) at 400 µM (α-glucosidase [6]) | IC50 (α-glucosidase [6])
1 | – | Cc1cc(C)n(-c2ccc(-n3c(-c4ccccc4)nc(-c4ccccc4)c3-c3ccccc3)cc2)n1 [Imidazole-pyrazole] | 105 µM | – | – | – | – | – | – | – | – | –
2 | – | COc1cc2oc3ccccc3c(=O)c2cc1OCCCCn1ccnc1-c1ccc(Cl)cc1 [Compound 10c, 2-(4-(2-(4-Chlorophenyl)-1H-imidazol-1-yl)butoxy)-3-methoxy-9H-xanthen-9-one] | – | 99.5 ± 0.1% | 5.4 ± 0.07 µM | 11.6 ± 1.54 ^F,G % | mixed-type inhibitor | 2.2 µM | mixed mode | 139 µM | 95.1 ± 0.15% | 232.7 ± 0.11 µM
3 | – | Clc1ccc(-c2nc(-c3ccccc3)n3c2-c2[nH]c4ccccc4c2CC3)cc1 [Carbazole-imidazole] | 81 µM | – | – | – | – | – | – | – | – | –
4 | – | C=CCc1c(OCCCCBr)c(OC)cc2oc3ccccc3c(=O)c12 [Compound 9b, 1-Allyl-2-(4-bromobutoxy)-3-methoxy-9H-xanthen-9-one] | – | 3.87 ± 0.11% | > 200 µM | 17.6 ± 1.17 ^D % | – | – | mixed mode | 1.25 µM | 96.3 ± 0.2% | 4 ± 0.007 µM
5 | – | O=c1c2c(O)cc(O)cc2oc2cc(O)c(-c3c(O)ccc4ccc(O)cc34)c(O)c12 [Dihydroxynaphtalenyl-xanthone] | 47.6 µM | – | – | – | – | – | – | – | – | –
6 | 175 to 176 °C | COc1cc2oc3ccccc3c(=O)c2cc1OCC(=O)c1ccc(Cl)cc1 [Compound 6c, 2-(2-(4-Chlorophenyl)-2-oxoethoxy)-3-methoxy-9H-xanthen-9-one] | – | 64.8 ± 0.15% | 76.7 ± 0.03 µM | 8.7 ± 0.67 ^G % | competitive type of inhibitor | 63.2 µM | mixed mode | 21.5 µM | 92.6 ± 0.11% | 16 ± 0.03 µM
7 | – | COc1c(O)cc2oc3cc(O)c(CC=C(C)C)c(O)c3c(=O)c2c1CC=C(C)C [α-Mangostin, α-mangostin] | 5 µM | – | – | – | – | – | – | – | – | –
